Assay results: patent publication US20110294741A1, “USE OF COMPOUNDS IN THE TREATMENT OF TAU-INDUCED CYTOTOXICITIES” (Bioalvo-Servicos, Investigacao e Desenvolvimento em …, priority 2008, published 2011)

What was measured:
[1] = Differential quenching, depth of location in the membrane; type: physicochemical; settings: phenolic ring, differential quenching with Brownian dynamics simulation
Source text: The x-axis indicates the distance to the bilayer center, being the monolayer thickness 20 Å and y-axis represents the values of the probability density function. Traces (4) and (5) relate to the location of the quenching agents used in the study.
Differential quenching experiments were used to estimate the depth of location of the phenolic ring of the peptides, based on a Brownian dynamics simulation (Fernandes M. X., García de la Torre J., Castanho M. A. 2002. Joint determination by Brownian dynamics and fluorescence quenching of the in-depth location profile of biomolecules in membranes. Anal. Biochem. 307: 1-12.) This methodology allows to determine where the molecules are preferably inserted along the lipid bilayer. The peptides with the amide group show a greater depth of insertion, 4 Å—KTP-NH2, from the lipid/water interface. This is in agreement with KTP-NH2 having a higher affinity for lipids, as desired.

rats (Wister, male) = experiment: Increasing-temperature hot-plate test; type: in vivo, rat; settings: i.p. and p.o. administration
Method: Kyotorphin is an endogenous analgesic agent in the brain. However, Kyotorphin can not be used as an analgesic due to its inability to cross the blood-brain-barrier. […] In addition, KTP-NH2 efficacy after oral administration was also observed.
In vivo behavioural anti-nociception tests were carried out in rats (Wister, male). Unless otherwise stated, compounds were administered by intra-peritoneal (i.p.) injection. For most assays, the Tail Flick and the Hot Plate tests were used.
The hot-plate test (Eddy N. B and Leimbach D. 1953. Synthetic analgesics II. Dithienylbutenyl and dithienylbutylamines J. Pharmacol. Exp. Ther. 45: 339) evaluates a supraspinally integrated response in the form of thermal pain reflexes due to footpad contact with a heated surface. During the experiments, the animal is confined in a removable clear acrylic compartment where the latency time to the first hind paw or/and jumping responses are measured. […] The response is the licking of the hindpaw, and the corresponding plate temperature represents the recorded nociceptive end-point. […]
A KTP derivative was used for comparative purposes, as control. Both drugs were injected i.p. and p.o. and rats were analysed for the Hot Plate and Tail Flick tests.

[2] = tested on: […] I cells, tunicamycin-induced ER stress; experiment: Yeast platform DISAGGREGATOR I, ER stress GFP reporter (chemically induced with tunicamycin); type: cell-based; settings: 1 μg/ml tunicamycin
Method: Cells were grown as described for FIG. 7;
The yeast platform DISAGGREGATOR I comprises an ER stress element operably linked to a GFP reporter element and is used to determine the level of ER stress in cells during growth or triggered by specific ER stress inducers, e.g. tunicamycin. Tunicamycin is known to inhibit the glycosylation of nascent polypeptides, resulting in misfolded proteins, that are retained in the endoplasmic reticulum and therefore triggering ER stress.
Using these two platforms in parallel, it is possible to identify compounds that reduce specifically the stress induced by the TAU P301L protein, and other compounds that are simply general ER stress reducers.
DISAGGREGATOR I P301L cells were grown in 200 μl medium containing the KTP-NH2 at a concentration of 10 μM and 100 μM. DISAGGREGATOR I cells were grown in the same condition but subjected to an addition of 1 μg/mL of tunicamycin in order to induce ER stress chemically.

[3] = Metabolic stability in human liver microsomal preparation; type: in vitro ADME; settings: human liver microsomes, 1-hour incubation
Source text: Many compounds can never become a drug because they are rapidly metabolized in the liver. It is important to confirm that metabolic stability is adequate to the desired distribution of compound throughout the body.

CYP3A4 = CYP3A4 (Homo sapiens, UniProt P08684); experiment: CYP inhibition; type: in vitro ADME; settings: probe substrates midazolan and testosterone
Source text: CYP3A4 is one of the most important enzymes involved in the metabolism of xenobiotics in the body, promoting the oxidation of the largest range of substrates of all the CYPs and is present in the largest quantity of all the CYPs in the liver.

[4] = Cytotoxicity in human hepatocytes (LDH release and ATP); type: cell-based; settings: LDH and ATP determination, read-out: LC50 (the source's name)
Method: Cytotoxicity was assessed with a cell-based assay using human hepatocytes. Cell death was assayed by quantifying plasma membrane damage or rupture through measurement of the release of lactate dehydrogenase (LDH) (Legrand, C. et al. 1992. Lactate dehydrogenase (LDH) activity of the cultured eukaryotic cells as marker of the number of dead cells in the medium. J. Biotechnol. 25: 231-243), a stable cytoplasmic enzyme present in most cells. Determination of cell viability was performed by quantifying ATP (Cree I. A and Andreotti P. E. 1997. Measurement of cytotoxicity by ATP-based luminescence assay in primary cell cultures and cell lines. Toxicology in vitro, 11: 553-556), a marker for cell viability because it is present in all metabolically active cells and the concentration declines very rapidly when the cells undergo necrosis or apoptosis.

Plasma stability = type: in vitro ADME, human; settings: after 1 h incubation
Source text: Drugs are exposed in plasma to enzymatic processes (proteinases, esterases), they can undergo intramolecular rearrangement or bind irreversibly (covalently) to proteins. Compounds which are not stable in plasma have inherent liability as drug candidates, as they are less capable to reach a sufficient concentration at their site of pharmacological activity.

[5] = Plasma serum stability of KTP-NH2 analogues; type: in vitro ADME; settings: Human Serum, test concentration 400 uM, 1-hour incubation
Method: In order to increase the potential of KTP-NH2 as a drug for systemic administration, derivatives with improved plasma stability were generated, and tested, including different isomers of KTP-NH2 and methylated versions of KTP-NH2 isomers: • L-Tyrosyl-D-Arginine-NH2 • D-Tyrosyl-D-Arginine-NH2 • D-Tyrosyl-L-Arginine-NH2 • Methyl-L-Tyrosyl-L-Arginine-NH2 • Methyl-L-Tyrosyl-D-Arginine-NH2
These analogues were tested for plasma serum stability, in comparison with KTP-NH2.

Chain of CYP3A4 (P08684 whole entry): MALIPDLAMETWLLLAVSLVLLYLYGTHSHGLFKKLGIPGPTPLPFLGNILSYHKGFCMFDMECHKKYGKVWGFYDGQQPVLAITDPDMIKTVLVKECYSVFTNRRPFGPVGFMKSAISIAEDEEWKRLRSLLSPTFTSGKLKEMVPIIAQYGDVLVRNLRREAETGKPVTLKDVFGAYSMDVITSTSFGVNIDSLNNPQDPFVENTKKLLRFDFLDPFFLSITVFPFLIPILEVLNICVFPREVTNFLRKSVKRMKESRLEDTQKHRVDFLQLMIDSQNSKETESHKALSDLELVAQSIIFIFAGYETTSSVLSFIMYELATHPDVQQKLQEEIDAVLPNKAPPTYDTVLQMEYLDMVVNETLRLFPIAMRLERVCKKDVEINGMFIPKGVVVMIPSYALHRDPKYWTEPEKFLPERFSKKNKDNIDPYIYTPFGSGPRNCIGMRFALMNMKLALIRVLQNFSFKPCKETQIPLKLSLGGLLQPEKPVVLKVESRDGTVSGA

N=C(N)NCCCC(NC(=O)C(N)Cc1ccc(O)cc1)C(N)=O [KTP-NH2, L-Tyr-L-Arg-NH2]
depth of insertion from the lipid/water interface [1]: 4 Å
anti-nociceptive response, temperature increase tolerated in the paw (Hot Plate) (rats (Wister, male)): clear anti-nociceptive response
action on ER stress chemically induced with tunicamycin ([2]; 10 and 100 μM, first assay (FIG. 10)): almost no action
decrease of stress chemically induced with tunicamycin ([2]; second assay (FIG. 12)): did not significantly decrease
residual ER stress signal, of the maximum level without compound ([2]; 100 μM, average of two experiments (FIG. 13)): 80%
compound remained after incubation with microsomal preparation [3]: 93%
CYP3A4 inhibition (CYP3A4): not to inhibit
CC50 [4]: > 125 µM
stability in human plasma (Plasma stability): 14-21%
Mean Parent Remaining (%) [5]: 14.00%
